Reference: ChEMBL document CHEMBL4715697, “Synthesis and biological activity of benzamide DNA minor groove binders” (2016)

Experiments:
[1] = system: Poly(dA-dT)oligonucleotide; experiment: Binding affinity to minor groove of poly(dA:dT) dsDNA (unknown origin) assessed as change in melting temperature by UV-vis spectrophotometry based DNA melting assay; format: nucleic-acid assay
[2] = system: Poly(dA-dT)oligonucleotide; experiment: Displacement of ethidium bromide from minor groove of poly(dA:dT) dsDNA (unknown origin) by fluorescence spectrophotometry; format: nucleic-acid assay
[3] = system: HL-60(TB); experiment: Growth inhibition of human HL-60(TB) cells assessed as cell growth at 0.01 uM incubated for 48 hrs by sulforhodamine B assay relative to control; format: functional; conditions: read-out: Activity
[4] = system: HCT-15; experiment: Growth inhibition of human HCT-15 cells assessed as cell growth at 0.01 uM incubated for 48 hrs by sulforhodamine B assay relative to control; format: functional; conditions: read-out: Activity
[5] = system: SF-268; experiment: Growth inhibition of human SF-268 cells assessed as cell growth at 0.1 uM incubated for 48 hrs by sulforhodamine B assay relative to control; format: functional; conditions: read-out: Activity
[6] = system: EKVX; experiment: Growth inhibition of human EKVX cells assessed as cell growth at 1 uM incubated for 48 hrs by sulforhodamine B assay relative to control; format: functional; conditions: read-out: Activity
[7] = system: U-251; experiment: Growth inhibition of human U-251 cells assessed as cell growth at 1 uM incubated for 48 hrs by sulforhodamine B assay relative to control; format: functional; conditions: read-out: Activity
[8] = system: SK-MEL-5; experiment: Growth inhibition of human SK-MEL-5 cells assessed as cell growth at 1 uM incubated for 48 hrs by sulforhodamine B assay relative to control; format: functional; conditions: read-out: Activity
[9] = system: OVCAR-3; experiment: Growth inhibition of human OVCAR-3 cells assessed as cell growth at 1 uM incubated for 48 hrs by sulforhodamine B assay relative to control; format: functional; conditions: read-out: Activity
[10] = system: MDA-MB-231; experiment: Growth inhibition of human MDA-MB-231 cells assessed as cell growth at 1 uM incubated for 48 hrs by sulforhodamine B assay relative to control; format: functional; conditions: read-out: Activity
[11] = system: BT-549; experiment: Growth inhibition of human BT-549 cells assessed as cell growth at 1 uM incubated for 48 hrs by sulforhodamine B assay relative to control; format: functional; conditions: read-out: Activity
[12] = system: HL-60(TB); experiment: Growth inhibition of human HL-60(TB) cells assessed as cell growth at 10 uM incubated for 48 hrs by sulforhodamine B assay relative to control; format: functional; conditions: read-out: Activity
[13] = system: EKVX; experiment: Growth inhibition of human EKVX cells assessed as cell growth at 10 uM incubated for 48 hrs by sulforhodamine B assay relative to control; format: functional; conditions: read-out: Activity
[14] = system: NCI-H226; experiment: Growth inhibition of human NCI-H226 cells assessed as cell growth at 10 uM incubated for 48 hrs by sulforhodamine B assay relative to control; format: functional; conditions: read-out: Activity
[15] = system: NCI-H322M; experiment: Growth inhibition of human NCI-H322M cells assessed as cell growth at 10 uM incubated for 48 hrs by sulforhodamine B assay relative to control; format: functional; conditions: read-out: Activity
[16] = system: COLO 205; experiment: Growth inhibition of human COLO 205 cells assessed as cell growth at 10 uM incubated for 48 hrs by sulforhodamine B assay relative to control; format: functional; conditions: read-out: Activity
[17] = system: KM12; experiment: Growth inhibition of human KM12 cells assessed as cell growth at 10 uM incubated for 48 hrs by sulforhodamine B assay relative to control; format: functional; conditions: read-out: Activity
[18] = system: SF-295; experiment: Growth inhibition of human SF-295 cells assessed as cell growth at 10 uM incubated for 48 hrs by sulforhodamine B assay relative to control; format: functional; conditions: read-out: Activity
[19] = system: SF-539; experiment: Growth inhibition of human SF-539 cells assessed as cell growth at 10 uM incubated for 48 hrs by sulforhodamine B assay relative to control; format: functional; conditions: read-out: Activity
[20] = system: SNB-19; experiment: Growth inhibition of human SNB-19 cells assessed as cell growth at 10 uM incubated for 48 hrs by sulforhodamine B assay relative to control; format: functional; conditions: read-out: Activity
[21] = system: Malme-3M; experiment: Growth inhibition of human Malme-3M cells assessed as cell growth at 10 uM incubated for 48 hrs by sulforhodamine B assay relative to control; format: functional; conditions: read-out: Activity
[22] = system: SK-MEL-2; experiment: Growth inhibition of human SK-MEL-2 cells assessed as cell growth at 10 uM incubated for 48 hrs by sulforhodamine B assay relative to control; format: functional; conditions: read-out: Activity
[23] = system: SK-MEL-28; experiment: Growth inhibition of human SK-MEL-28 cells assessed as cell growth at 10 uM incubated for 48 hrs by sulforhodamine B assay relative to control; format: functional; conditions: read-out: Activity
[24] = system: OVCAR-4; experiment: Growth inhibition of human OVCAR-4 cells assessed as cell growth at 10 uM incubated for 48 hrs by sulforhodamine B assay relative to control; format: functional; conditions: read-out: Activity
[25] = system: NCI/ADR-RES; experiment: Growth inhibition of human NCI/ADR-RES cells assessed as cell growth at 10 uM incubated for 48 hrs by sulforhodamine B assay relative to control; format: functional; conditions: read-out: Activity
[26] = system: A498; experiment: Growth inhibition of human A498 cells assessed as cell growth at 10 uM incubated for 48 hrs by sulforhodamine B assay relative to control; format: functional; conditions: read-out: Activity
[27] = system: MCF7; experiment: Growth inhibition of human MCF7 cells assessed as cell growth at 10 uM incubated for 48 hrs by sulforhodamine B assay relative to control; format: functional; conditions: read-out: Activity
[28] = system: MDA-MB-231; experiment: Growth inhibition of human MDA-MB-231 cells assessed as cell growth at 10 uM incubated for 48 hrs by sulforhodamine B assay relative to control; format: functional; conditions: read-out: Activity
[29] = system: Hs-578T; experiment: Growth inhibition of human Hs-578T cells assessed as cell growth at 10 uM incubated for 48 hrs by sulforhodamine B assay relative to control; format: functional; conditions: read-out: Activity
[30] = system: T47D; experiment: Growth inhibition of human T47D cells assessed as cell growth at 10 uM incubated for 48 hrs by sulforhodamine B assay relative to control; format: functional; conditions: read-out: Activity
[31] = system: NCI-H322M; experiment: Growth inhibition of human NCI-H322M cells assessed as cell growth at 100 uM incubated for 48 hrs by sulforhodamine B assay relative to control; format: functional; conditions: read-out: Activity
[32] = system: LOX IMVI; experiment: Growth inhibition of human LOX IMVI cells assessed as cell growth at 100 uM incubated for 48 hrs by sulforhodamine B assay relative to control; format: functional; conditions: read-out: Activity
[33] = system: SK-MEL-2; experiment: Growth inhibition of human SK-MEL-2 cells assessed as cell growth at 100 uM incubated for 48 hrs by sulforhodamine B assay relative to control; format: functional; conditions: read-out: Activity
[34] = system: OVCAR-5; experiment: Growth inhibition of human OVCAR-5 cells assessed as cell growth at 100 uM incubated for 48 hrs by sulforhodamine B assay relative to control; format: functional; conditions: read-out: Activity
[35] = system: T47D; experiment: Growth inhibition of human T47D cells assessed as cell growth at 100 uM incubated for 48 hrs by sulforhodamine B assay relative to control; format: functional; conditions: read-out: Activity
[36] = system: SNB-19; experiment: Growth inhibition of human SNB-19 cells incubated for 48 hrs by sulforhodamine B assay; format: functional
[37] = system: UACC-257; experiment: Growth inhibition of human UACC-257 cells incubated for 48 hrs by sulforhodamine B assay; format: functional
[38] = system: OVCAR-4; experiment: Growth inhibition of human OVCAR-4 cells incubated for 48 hrs by sulforhodamine B assay; format: functional

CC(=O)Nc1cc(CCl)cc(NC(=O)c2ccc(C(=O)Nc3cccc(NC(=O)CCCN(C)C)c3)cc2)c1
ΔTm [1]: 38.7 °C
C50 [2]: 9.9 µM
growth at 0.01 µM [3]: 86%
growth at 0.01 µM [4]: 94%
growth at 0.1 µM [5]: 101%
growth at 1 µM [6]: 81%
growth at 1 µM [7]: 93%
growth at 1 µM [8]: 93%
growth at 1 µM [9]: 109%
growth at 1 µM [10]: 104%
growth at 1 µM [11]: 108%
growth at 10 µM [12]: 101%
growth at 10 µM [13]: 86%
growth at 10 µM [14]: 93%
growth at 10 µM [15]: 108%
growth at 10 µM [16]: 105%
growth at 10 µM [17]: 104%
growth at 10 µM [18]: 66%
growth at 10 µM [19]: 100%
growth at 10 µM [20]: 106%
growth at 10 µM [21]: 100%
growth at 10 µM [22]: 116%
growth at 10 µM [23]: 96%
growth at 10 µM [24]: 99%
growth at 10 µM [25]: 100%
growth at 10 µM [26]: 87%
growth at 10 µM [27]: 71%
growth at 10 µM [28]: 106%
growth at 10 µM [29]: 111%
growth at 10 µM [30]: 95%
growth at 100 µM [31]: 103%
growth at 100 µM [32]: 75%
growth at 100 µM [33]: 116%
growth at 100 µM [34]: 91%
growth at 100 µM [35]: 71%
GI50 ([36]; read-out: GI50): > 100 µM
CC50 ([36]; read-out: LC50 (the source's name)): > 100 µM
TGI ([36]; read-out: TGI): > 100 µM
GI50 ([36]; read-out: pGI50 (converted)): > 100 µM
CC50 ([36]; read-out: pLC50 (the source's name) (converted)): > 100 µM
TGI ([36]; read-out: pTGI): > 100 µM
GI50 ([37]; read-out: GI50): > 100 µM
LC50 ([37]; read-out: LC50): > 100 µM
TGI ([37]; read-out: TGI): > 100 µM
GI50 ([37]; read-out: pGI50 (converted)): > 100 µM
LC50 ([37]; read-out: pLC50 (converted)): > 100 µM
TGI ([37]; read-out: pTGI): > 100 µM
GI50 ([38]; read-out: GI50): > 100 µM
LC50 (concentration killing 50% of cells) ([38]; read-out: LC50): > 100 µM
TGI ([38]; read-out: TGI): > 100 µM
GI50 ([38]; read-out: pGI50 (converted)): > 100 µM
LC50 (concentration killing 50% of cells) ([38]; read-out: pLC50 (converted)): > 100 µM
TGI ([38]; read-out: pTGI): > 100 µM

CC(=O)Nc1cc(CO)cc(NC(=O)c2ccc(C(=O)Nc3cccc(NC(=O)CCCN(C)C)c3)cc2)c1
ΔTm [1]: 30.7 °C
C50 [2]: 118 µM
growth at 10 µM [12]: 91.2%
growth at 10 µM [13]: 95.5%
growth at 10 µM [14]: 93.6%
growth at 10 µM [15]: 98.5%
growth at 10 µM [16]: 76.3%
growth at 10 µM [17]: 83.1%
growth at 10 µM [19]: 88%
growth at 10 µM [20]: 114%
growth at 10 µM [21]: 17.6%
growth at 10 µM [22]: 91.8%
growth at 10 µM [23]: 85.3%
growth at 10 µM [24]: 34.8%
growth at 10 µM [25]: 107%
growth at 10 µM [27]: 25.2%
growth at 10 µM [28]: 88.6%
growth at 10 µM [30]: 82.4%

CC(=O)Nc1cc(CO)cc(NC(=O)c2ccccc2)c1
growth at 10 µM [12]: 85.6%
growth at 10 µM [13]: 103%
growth at 10 µM [14]: 115%
growth at 10 µM [15]: 110%
growth at 10 µM [16]: 115%
growth at 10 µM [17]: 116%
growth at 10 µM [18]: 108%
growth at 10 µM [19]: 111%
growth at 10 µM [20]: 106%
growth at 10 µM [21]: 109%
growth at 10 µM [22]: 111%
growth at 10 µM [23]: 109%
growth at 10 µM [24]: 111%
growth at 10 µM [25]: 105%
growth at 10 µM [26]: 91.6%
growth at 10 µM [27]: 106%
growth at 10 µM [28]: 109%
growth at 10 µM [29]: 105%
growth at 10 µM [30]: 103%
